Measured values: PubChem BioAssay (NCI)
Several values for one entry are separate records, joined by “and”; a condition that tells them apart may be missing. Equal values may be shown once.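 The compound was tested at five concentrations on cells cultured in 96-well plates, with a 48-hour exposure period. GI50 marks 50% less growth. Definition used: TGI = concentration required for complete inhibition of growth.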

Key:
Experiment in all cases: NCI anticancer screen, dose series, 48 h
[1] = tested on: DLD-1 colon
[2] = tested on: LOX IMVI melanoma
[3] = tested on: SW-620 colon
[4] = tested on: ACHN renal
[5] = tested on: MALME-3M melanoma
[6] = tested on: DU-145 prostate
[7] = tested on: MCF7 breast
[8] = tested on: MDA-MB-231 breast
[9] = tested on: T-47D breast
[10] = tested on: SR leukemia

Row | Compound | TGI [1] | TGI [2] | TGI [3] | TGI [4] | TGI [5] | GI50 [4] | GI50 [6] | TGI [6] | GI50 [5] | GI50 [7] | TGI [7] | GI50 [8] | TGI [8] | GI50 [3] | TGI [9] | TGI [10] | GI50 [1] | GI50 [2] | GI50 [9] | GI50 [10]
1 | O=c1c(-c2ccccc2)c[nH]c2cc([N+](=O)[O-])c(/C(Cl)=C/c3ccccc3)cc12 | 13.6 µM | > 22.5 µM | 26.8 µM | – | – | – | – | – | – | – | – | – | – | – | – | – | – | – | – | –
2 | C[Si](C)(C)C#C[I+]c1ccccc1 | 40.9 µM | 41.2 µM | – | > 100 µM | > 100 µM | – | – | – | – | – | – | – | – | – | – | – | – | – | – | –
3 | COc1cc(-c2ccc(-c3ccc(C(=N)N)s3)s2)cc(OC)c1OC | – | – | – | 3.17 µM | 3.53 µM | 1.78 µM | 2.32 µM | 5.83 µM | 1.74 µM | 1.66 µM | 4.32 µM | – | – | – | – | – | – | – | – | –
4 | O=C(CCN1CCCC1)Nc1ccc2c(NCCCCc3ccccc3)c3ccccc3nc2c1 | – | – | 1.86 µM | 2.59 µM | 3.26 µM | 1.32 µM | 1.15 µM | 2.39 µM | 1.72 µM | – | – | 1.15 µM | 2.43 µM | 0.534 µM | – | – | – | – | – | –
5 | Cc1c2cc[n+](C)cc2c(C)c2c1[nH]c1ccc(O)cc12 | > 100 µM | > 96.4 µM | > 100 µM | – | 26.4 µM | – | – | 74.7 µM | – | – | > 39.4 µM | – | > 100 µM | – | 11 µM | – | – | – | – | –
6 | CCOC(=O)c1c(NC(=S)NCc2ccccc2)sc2c1CCN(C)C2 | – | – | – | > 100 µM | – | – | – | > 100 µM | – | – | > 100 µM | – | > 100 µM | – | > 100 µM | – | – | – | – | –
7 | Cc1c2cc[n+](C)cc2c(COC2OC(CO)C(O)C2O)c2c3ccccc3n(C)c12 (stereo unspecified) | > 100 µM | > 100 µM | > 100 µM | – | 98.4 µM | – | – | – | – | – | > 100 µM | – | – | – | – | – | – | – | – | –
8 | COc1cc2c(cc1-c1c(C)noc1C)ncc1nc(C3CCCCC3)n(C3CCC(OC(F)F)CC3)c12 (stereo unspecified) | – | – | – | – | – | – | 3.52 µM | > 100 µM | – | 0.584 µM | > 100 µM | 1.72 µM | > 100 µM | – | – | – | – | – | – | –
9 | NC(=O)c1cc2ccccc2c(N=Nc2ccccc2)c1O | – | > 100 µM | > 100 µM | – | > 100 µM | – | – | > 100 µM | – | – | – | – | > 100 µM | – | > 100 µM | > 100 µM | – | – | – | –
10 | CC(=O)OC1CC2(O)C(CCC3(C)C(c4ccc(=O)oc4)CCC32O)C2(C)CCC(O)C=C12 (stereo unspecified) | 0.107 µM and 0.0583 µM | 0.126 µM and 0.0573 µM | 0.17 µM and 0.0561 µM | – | 0.0469 µM | – | – | – | 0.0112 µM | 0.0173 µM | 0.188 µM and 0.181 µM | – | – | 0.01 µM | – | – | 0.0152 µM | 0.0375 µM | – | –
11 | N#Cc1ccc(Nc2nc3nc[nH]c3c(=O)[nH]2)cc1 | – | > 100 µM | > 100 µM | > 100 µM | > 100 µM | – | – | > 100 µM | – | – | > 100 µM | – | > 100 µM | – | > 100 µM | > 100 µM | – | – | – | –
12 | CC(=O)O[C@H]1C(=O)[C@]2(C)[C@@H](OC(=O)OCC(O)CO)C[C@H]3OC[C@@]3(OC(C)=O)[C@H]2[C@H](OC(=O)c2ccccc2)[C@]2(O)C[C@H](OC(=O)[C@H](O)[C@@H](NC(=O)c3ccccc3)c3ccccc3)C(C)=C1C2(C)C (stereo partly specified) | – | 25 µM | 22.1 µM | > 100 µM | – | – | – | – | – | – | > 39.7 µM | – | 17.2 µM | – | – | 15.8 µM | – | – | – | –
13 | COc1cccc2c1C(=O)c1c(O)c3c(c(O)c1C2=O)C[C@@](O)(C(C)=O)C[C@@H]3OC1CC(N)C(O)C(C)O1 (stereo partly specified) | 5.53 µM and 6.33 µM and > 5.01 µM | – | – | – | – | < 0.011 µM | – | – | – | – | – | 0.0534 µM | – | – | – | 0.239 µM and 0.908 µM | > 5.01 µM | – | < 0.0176 µM | –
14 | CN1CCN(c2ccc3nc(-c4ccc(OCCCN5C(=O)c6cccc7cccc(c67)C5=O)cc4)[nH]c3c2)CC1 | – | – | 3.44 µM | 11.2 µM | > 30.8 µM | 5.34 µM | – | – | 4.43 µM | – | – | 1.41 µM | 2.76 µM | 1.83 µM | 34.3 µM | 5.94 µM | – | – | 4.8 µM | 2.69 µM
15 | CCP(=O)(CC)C(Cl)(Cl)C(=O)NC | – | > 100 µM | > 100 µM | > 100 µM | – | – | – | > 100 µM | – | – | – | – | > 100 µM | – | > 100 µM | > 100 µM | – | – | – | –
16 | CC(C)(C)CC(C)(C)Cc1ccc(OCCOCC[N+](C)(C)Cc2ccccc2)cc1 | – | – | 3.35 µM | 27 µM | – | 11.8 µM | 3.68 µM | 13.8 µM | – | – | – | 1.51 µM | 3.08 µM | 1.64 µM | 3.94 µM | – | – | – | 1.41 µM | –
